According to patent US20050164196A1, “Methods to predict patient responsiveness to tyrosine kinase inhibitors” (priority 2002, published 2005):
Several values for one entry are separate records, joined by “and”; a condition that tells them apart may be missing. Equal values may be shown once. Where a name gives a salt, the structure may show the parent alone. Read-outs that look alike come from different tables or passages of the source.

Key:
CML = settings: cited from earlier work
[1] = of 54 CML patients treated with 300 mg or more
[2] = rs2290573 CC genotype, n = 26, 18-month data, ITT principle
[3] = rs2290573 CT, TT genotype, n = 79, 18-month data, ITT principle

SMILES: Cc1ccc(NC(=O)c2ccc(CN3CCN(C)CC3)cc2)cc1Nc1nccc(-c2cccnc2)n1 [Imatinib, Imatinib mesylate]
- major responses (0-35% of cells in metaphase positive for the Ph′ chromosome) (CML; % of the 54 patients who received 300 mg or more): 31%
- complete cytogenetic remission (CCR) (CML; [1]): 7 patients
- complete hematologic responses (CHR) (CML; [1]): 53 patients
- cytogenic responses (CML; [1]): 29 patients
- major responses (0-35% of cells in metaphase positive for the Ph′ chromosome) (CML; [1]): 17 patients
- events of progression (Ph+ CML; genotyped patients of the Imatinib arm, 18-month data, ITT principle): 10 events
- TTP (months) (Ph+ CML; individual patients with disease progression among the 105 analyzed patients, 18-month data, one line per patient, listed as STI571): 16.1 months and 16.3 months and 11.8 months and 17.0 months and 13.4 months and 16.4 months and 9.7 months and 15.8 months and 5.6 months and 6.8 months
- individuals who exhibited disease progression (Ph+ CML; out of the entire 553 treated patients, 12-month data): 24 individuals
- patients who experienced progression events (Ph+ CML; rs2290573 CC genotype, 26 patients, 18-month data): 23.1%
- Death (as primary reason for discontinuation) (Ph+ CML; [2]): 0 (0) n (%)
- Increase in WBC (approved by SMC) (Ph+ CML; [2]): 1 (3.8) n (%)
- Loss of CHR (Ph+ CML; [2]): 1 (3.8) n (%)
- Loss of MCyR (Ph+ CML; [2]): 4 (15.4) n (%)
- Progression to AP or BC (Ph+ CML; [2]): 0 (0) n (%)
- Total number of patients with events (progression) (Ph+ CML; [2]): 6 (23.1) n (%)
- patients who experienced progression events (Ph+ CML; rs2290573 CT or TT genotype, 79 patients, 18-month data): 5.1%
- Death (as primary reason for discontinuation) (Ph+ CML; [3]): 0 (0) n (%)
- Increase in WBC (approved by SMC) (Ph+ CML; [3]): 0 (0) n (%)
- Loss of CHR (Ph+ CML; [3]): 2 (2.5) n (%)
- Loss of MCyR (Ph+ CML; [3]): 0 (0) n (%)
- Progression to AP or BC (Ph+ CML; [3]): 2 (2.5) n (%)
- Total number of patients with events (progression) (Ph+ CML; [3]): 4 (5.1) n (%)
